Columns and labels:
Aspergillus niger = experiment: Inhibition of growth of Aspergillus niger in liquid MSY medium (96-well microplate, OD 686 nm); format: cell-based; details: MSY broth, four days at 28° C. in the dark, complete inhibition = OD≦0.05, test levels given as ppm
Description: The antifungal activities of compounds of formula (I) were measured by determining the inhibition of growth of Aspergillus niger in a standard liquid medium. The liquid growth medium is described as a solution of mineral salts+yeast extract (MSY). The MSY broth was prepared as described in ASTM G 21–70^1, and amended with glucose (10 g liter^−1) and yeast extract (1 g liter^−1). An aliquot (250 μL) of sterile medium was dispensed into each test well of a standard 96-well microplate (Corning No. 430247). Stock solutions of test compounds were prepared by dissolving the materials in 9:1 (v/v) solution of acetone:methanol. Appropriate volumes of stock solutions were added to the test wells in order to achieve the desired ppm levels. Each test well (plus controls) was then inoculated with 5 μL of a standardized suspension of Aspergillus niger. The cell suspension was prepared by suspending viable cells from a slant of potato dextrose agar into sterile, deionized water. The suspension was then adjusted to provide OD686=0.28. This density contains approximately 2.5×10^7 CFU mL^−1 (CFU=Colony Forming Units). The microplates were incubated in the dark for four days at 28° C. The optical density for each well at 686 nm was then recorded automatically using a SpectraMax 340 microplate reader (Molecular Devices Corp., Sunnyvale, Calif.). All wells were visually inspected in order to corroborate data from the instrument. […] The results are shown in Table 2. ^1“Standard Practice for Determining Resistance of Synthetic Polymeric Materials to Fungi”,ASTM Standards on Materials and Environmental Microbiology, 1st. Ed., 1987.

[1] = system: fungal growth (mold) on wet blue hide; experiment: Performance testing in a tannery: wet blue test pieces in mold-infested tropical chamber; details: methyl carbitol-based formulation containing 30% w/w, 0.1% by weight in float (300 ppm active ingredient), chrome tanning of cowhides; 47 wet blue pieces, four weeks in tropical chamber
Description: A methyl carbitol-based formulation containing 30% w/w of hexyl chloromethyl cyanodithiocarbimate was tested in a commercial tannery. Eighty-two cowhides were subjected to a standard production run using chrome tanning. The test formulation was added to the float (tanning liquid) at a concentration of 0.1% by weight providing a concentration of 300 ppm of active ingredient hexyl chloromethyl cyanodithiocarbimate. At the completion of the tanning process, five tanned hides (“wet blues”) were chosen randomly. Numerous test pieces (12×14 cm) were cut from the butt, belly, and neck regions of each of the five hides. A total of 47 test pieces of wet blue obtained were coded relative to hide source and position, and each piece was suspended in a tropical chamber. The tropical chamber was a mold-infested humidity chamber designed to severely challenge the test fungicide applied during the tanning process. Each test piece was visually examined on a weekly basis for four weeks for the presence or absence and extent of possible mold growth. […] This is the type of performance desired of a fungicide by the hide tanning industry.

Compound: C=CCSC(=NC#N)SCCl [Cl, —CH2CHC═CH2, allyl chloromethyl cyanodithiocarbimate]
- Antifungal MIC (Aspergillus niger): 1.0

Compound: N#CN=C(SCCl)SCc1ccccc1 [Cl, —CH2C6H5, benzyl chloromethyl cyanodithiocarbimate]
- Antifungal MIC (Aspergillus niger): 1.0

Compound: CC(C)SC(=NC#N)SCCl [Cl, —CH2(CH3)2, isopropyl chloromethyl cyanodithiocarbimate]
- Antifungal MIC (Aspergillus niger): 0.5

Compound: CCCCCCSC(=NC#N)SCCl [Cl, —(CH2)5CH3, hexyl chloromethyl cyanodithiocarbimate]
- Antifungal MIC (Aspergillus niger): 0.2
- presence or absence and extent of mold growth on test pieces [1]: free of fungal growth

Compound: CCCSC(=NC#N)SCCl [Cl, —(CH2)2CH3, propyl chloromethyl cyanodithioicarbimate]
- Antifungal MIC (Aspergillus niger): 0.5

Reference: patent publication US7157017B2, “Fungicidal compositions and methods using cyanodithiocarbimates” (Buckman Laboratories International, Inc., priority 2003, dated 2007)
